How the values were obtained:
Assay type in all cases: in vivo
[1] = system: crabgrass (Digitaria sanguinalis L.), DIGSA; test: Test Example 2 post-emergence (foliage treatment) herbicidal activity, DIGSA
Method in brief: (§1)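 Pot-grown plants in upland soil were sprayed over the foliage at ECHCG 1.1-2.1, DIGSA 1.0-2.0, AMARE 0.1-1.5 and ORYSA 1.0-2 leaf stage. Wettable powder or emulsifiable concentrate was diluted in water at 500 L/ha plus 0.1% (v/v) spreader. Growth control was scored visually 20-23 days later, 0 (untreated) to 100% (complete kill).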

[2] = system: crabgrass (Digitaria sanguinalis L.): DIGSA; test: Test Example 1 pre-emergence herbicidal activity, DIGSA; settings: Rate 63 g a.i./ha, visually observed 20th to 23rd day after application
Method in brief: (§2)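 Seeds sown in upland field soil in pots; one day later compound, formulated as wettable powder or emulsifiable concentrate and diluted with water at 500 L/ha, sprayed pre-emergence at a predetermined active-ingredient rate. Growth control scored visually 20–23 days after application, 0 (untreated-like) to 100 (complete kill) %.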

[3] = system: prickly sida (Sida spinosa L.): SEDSP; test: Test Example 1 pre-emergence herbicidal activity, SIDSP; settings: Rate 63 g a.i./ha, visually observed 20th to 23rd day after application
Method in brief: as §2

[4] = system: redroot pigweed (Amaranthus retroflexus L.), AMARE; test: Test Example 2 post-emergence (foliage treatment) herbicidal activity, AMARE
Method in brief: as §1

[5] = system: barnyardgrass (Echinochloa crus-galli L.), ECHCG; test: Test Example 2 post-emergence (foliage treatment) herbicidal activity, ECHCG
Method in brief: as §1

[6] = system: japanese ribbon wapato (Sagittaria pygmaea: SA GPY); test: Test Example 3 water application herbicidal activity (paddy), SAGPY; settings: 63 g a.i./ha, water application under submerged condition, tubers planted, visually observed 14th day after application; 0 = untreated control, 100 = complete kill
Method in brief: (§3)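 Flooded paddy-soil pots in greenhouse; ECHOR and SCPJO sown, SAGPY tubers planted a day later, compound applied into 3–4 cm water at weeds' 0.5-leaf stage. Rice transplanted at 2-leaf stage, treated day 4 after transplanting. Visual growth control 0–100% at 14 days (weeds) and 21 days (rice) after application.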

[7] = system: prickly sida (Sida spinosa L.), SIDSP; test: Test Example 2 post-emergence (foliage treatment) herbicidal activity, SIDSP
Method in brief: (§4)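 Foliar spray of formulated compound (500 L/ha dilution water, 0.1% v/v spreader) onto young potted plants at defined leaf stages. Scored 0-100% by visual inspection 20-23 d post-spray.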

[8] = system: green foxtail (Setaria viridis L.), SETVI; test: Test Example 2 post-emergence (foliage treatment) herbicidal activity, SETVI
Method in brief: as §4

[9] = system: rice (Oryza sativa L.): ORYSA; test: Test Example 1 pre-emergence herbicidal activity, ORYSA; settings: Rate 63 g a.i./ha, visually observed 20th to 23rd day after application
Method in brief: as §2

[10] = system: barnyardgrass (Echinochloa crus-galli L.): ECHCG; test: Test Example 1 pre-emergence herbicidal activity, ECHCG; settings: Rate 63 g a.i./ha, visually observed 20th to 23rd day after application
Method in brief: as §2

[11] = system: velvetleaf (Abutilon theophrasti), ABUTH; test: Test Example 2 post-emergence (foliage treatment) herbicidal activity, ABUTH
Method in brief: as §4

[12] = system: soybean (Glycine max Merr.): GLXMA; test: Test Example 1 pre-emergence herbicidal activity, GLXMA; settings: Rate 63 g a.i./ha, visually observed 20th to 23rd day after application
Method in brief: as §2

[13] = system: rice (Oryza sativa L.: ORYSA); test: Test Example 3 water application herbicidal activity (paddy), transplanted rice ORYSA; settings: 63 g a.i./ha, water application 4th day after transplantation of 2 leaf stage rice, visually observed 21st day after application; 0 = untreated control, 100 = complete kill
Method in brief: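 Compound, as diluted wettable powder or emulsifiable concentrate, was pipetted into flood water at a set active-ingredient dose. Weeds were treated at 0.5-leaf stage after sowing or tuber planting; 2-leaf rice 4 days post-transplant. Control scored visually, 0 untreated to 100 complete kill, weeds day 14, rice day 21.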

[14] = system: barnyardgrass (Echinochiloa oryzicola: ECHOR); test: Test Example 3 water application herbicidal activity (paddy), ECHOR; settings: 63 g a.i./ha, water application under submerged condition at 0.5 leaf stage, visually observed 14th day after application; 0 = untreated control, 100 = complete kill
Method in brief: as §3

[15] = system: corn (Zea mays L.): ZEAMX; test: Test Example 1 pre-emergence herbicidal activity, ZEAMX; settings: Rate 63 g a.i./ha, visually observed 20th to 23rd day after application
Method in brief: as §2

[16] = system: wheat (Triticum aestivum L.), TRZAX; test: Test Example 2 post-emergence (foliage treatment) herbicidal activity, TRZAX
Method in brief: as §4

[17] = system: wheat (Triticum aestivum L.): TRZAX; test: Test Example 1 pre-emergence herbicidal activity, TRZAX; settings: Rate 63 g a.i./ha, visually observed 20th to 23rd day after application
Method in brief: as §2

[18] = system: corn (Zea mays L.), ZEAMX; test: Test Example 2 post-emergence (foliage treatment) herbicidal activity, ZEAMX
Method in brief: as §4

[19] = system: japanese bulrush (Scirpus juncoides: SCPJO); test: Test Example 3 water application herbicidal activity (paddy), SCPJO; settings: 63 g a.i./ha, water application under submerged condition at 0.5 leaf stage, visually observed 14th day after application; 0 = untreated control, 100 = complete kill
Method in brief: as §3

[20] = system: green foxtail (Setaria viridis L.): SETVI; test: Test Example 1 pre-emergence herbicidal activity, SETVI; settings: Rate 63 g a.i./ha, visually observed 20th to 23rd day after application
Method in brief: as §2

[21] = system: redroot pigweed (Amaranthus retroflexus L.): AMARE; test: Test Example 1 pre-emergence herbicidal activity, AMARE; settings: Rate 63 g a.i./ha, visually observed 20th to 23rd day after application
Method in brief: as §2

[22] = system: soybean (Glycine max Merr.), GLXMA; test: Test Example 2 post-emergence (foliage treatment) herbicidal activity, GLXMA
Method in brief: as §4

[23] = system: velvetleaf (Abutilon theophrasti): ABUTH; test: Test Example 1 pre-emergence herbicidal activity, ABUTH; settings: Rate 63 g a.i./ha, visually observed 20th to 23rd day after application
Method in brief: as §2

[24] = system: rice (Oryza sativa L.), ORYSA; test: Test Example 2 post-emergence (foliage treatment) herbicidal activity, ORYSA
Method in brief: as §1

Compound | growth controlling degree, DIGSP ([1]; 63 g a.i./ha) | Pre-emergence Herbicidal Activity DIGSP (growth controlling degree) [2] | Pre-emergence Herbicidal Activity SIDSP (growth controlling degree) [3] | growth controlling degree, AMARE ([4]; 63 g a.i./ha) | growth controlling degree, ECHCO ([5]; 63 g a.i./ha) | growth controlling degrees (%) SAGPY [6] | growth controlling degree, SIDSP ([7]; 63 g a.i./ha) | growth controlling degree, SETVI ([8]; 63 g a.i./ha) | Pre-emergence Herbicidal Activity ORYSA (growth controlling degree) [9] | Pre-emergence Herbicidal Activity ECHCG (growth controlling degree) [10] | growth controlling degree, ABUTH ([11]; 63 g a.i./ha) | Pre-emergence Herbicidal Activity GLXMA (growth controlling degree) [12] | growth controlling degrees (%) ORYSA [13] | growth controlling degrees (%) ECHOR [14] | Pre-emergence Herbicidal Activity ZEAMX (growth controlling degree) [15] | Pre-emergence Herbicidal Activity TRZAX (growth controlling degree) [17] | growth controlling degrees (%) SCPJO [19] | Pre-emergence Herbicidal Activity SETVI (growth controlling degree) [20] | Pre-emergence Herbicidal Activity AMARE (growth controlling degree) [21] | Pre-emergence Herbicidal Activity ABUTH (growth controlling degree) [23] | also measured
C#CCN(C=O)c1c(OC(F)F)c(Cl)cc(F)c1-c1nn(C)c(OC(F)F)c1Cl [Compound 1-85] | 80% | 100% | 70% | 100% | 80% | 70% | 95% | 100% | 10% | 60% | 100% | 0% | 70% | 100% | 10% | 0% | 60% | 70% | 100% | 30% | growth controlling degree, TRZAX ([16]; 63 g a.i./ha): 40%; growth controlling degree, ZEAMX ([18]; 63 g a.i./ha): 40%; growth controlling degree, GLXMA ([22]; 63 g a.i./ha): 60%; growth controlling degree, ORYSA ([24]; 63 g a.i./ha): 60%
COc1c(Cl)cc(F)c(-c2nn(C)c(OC(F)F)c2Cl)c1N [Compound 1-90, 3-chloro-6-[4-chloro-5-(difluoromethoxy)-1-methyl-1H-pyrazol-3-yl]-5-fluoro-2-methoxybenzenamine] | – | 100% | 98% | – | – | 98% | – | – | 60% | 98% | – | 40% | 50% | 100% | 30% | 50% | 98% | 100% | 100% | 100% | growth controlling degree, DIGSP ([1]; 31 g a.i./ha): 100%; growth controlling degree, AMARE ([4]; 31 g a.i./ha): 100%; growth controlling degree, ECHCO ([5]; 31 g a.i./ha): 100%; growth controlling degree, SIDSP ([7]; 31 g a.i./ha): 100%; growth controlling degree, SETVI ([8]; 31 g a.i./ha): 100%; growth controlling degree, ABUTH ([11]; 31 g a.i./ha): 100%; growth controlling degree, TRZAX ([16]; 31 g a.i./ha): 95%; growth controlling degree, ZEAMX ([18]; 31 g a.i./ha): 98%; growth controlling degree, GLXMA ([22]; 31 g a.i./ha): 98%; growth controlling degree, ORYSA ([24]; 31 g a.i./ha): 98%
COc1c(Cl)cc(F)c(-c2nn(C)c(OC(F)F)c2Cl)c1NC(=O)c1ccccc1C(F)(F)F [Compound 1-25] | 100% | 98% | 100% | 100% | 98% | 100% | 100% | 100% | 40% | 60% | 100% | 0% | 60% | 98% | 0% | 0% | 95% | 95% | 100% | 100% | growth controlling degree, TRZAX ([16]; 63 g a.i./ha): 40%; growth controlling degree, ZEAMX ([18]; 63 g a.i./ha): 90%; growth controlling degree, GLXMA ([22]; 63 g a.i./ha): 98%; growth controlling degree, ORYSA ([24]; 63 g a.i./ha): 90%
COc1c(Cl)cc(F)c(-c2nn(C)c(OC(F)F)c2Cl)c1NC(=O)C=Cc1c(Cl)cccc1Cl [Compound 1-252] | 95% | 40% | 20% | 100% | 100% | 60% | 100% | 100% | 10% | 30% | 100% | 0% | 10% | 100% | 0% | 10% | 30% | 50% | 100% | 50% | growth controlling degree, TRZAX ([16]; 63 g a.i./ha): 50%; growth controlling degree, ZEAMX ([18]; 63 g a.i./ha): 50%; growth controlling degree, GLXMA ([22]; 63 g a.i./ha): 80%; growth controlling degree, ORYSA ([24]; 63 g a.i./ha): 50%
COC(=O)Nc1c(OC)c(Cl)cc(F)c1-c1nn(C)c(OC(F)F)c1Cl [Compound 1-62] | 100% | 100% | 100% | 100% | 100% | 100% | 100% | 100% | 80% | 100% | 100% | 20% | 70% | 100% | 30% | 60% | 100% | 100% | 100% | 100% | growth controlling degree, TRZAX ([16]; 63 g a.i./ha): 30%; growth controlling degree, ZEAMX ([18]; 63 g a.i./ha): 80%; growth controlling degree, GLXMA ([22]; 63 g a.i./ha): 80%; growth controlling degree, ORYSA ([24]; 63 g a.i./ha): 80%
